Measurements from paper PMC6198068, “Discovery of a Novel Nav1.7 Inhibitor From Cyriopagopus albostriatus Venom With Potent Analgesic Efficacy” (Frontiers in Pharmacology, 2018).
Where a SMILES comes first, the peptide text is derived from it. Bridges are numbered along the chain shown (N, C = ends).

Key:
Type in all cases: cell-based
[1] = target: T1, hNav1.7 (Homo sapiens, UniProt Q15858); experiment: Whole-cell patch-clamp, WT Nav1.7 in HEK293T cells; settings: mean ± SEM
T1 construct: expressed in transfected cells; host or cells: HEK293T
Excerpt: (§1) The cDNA genes encoding rat Nav1.4 and human Nav1.7 were subcloned into vectors pRGB4 and pcDNA3.1-mod, respectively. Mutations of rNav1.4 (N655D, Q657E, and N655D/Q657E) and hNav1.7 (D816N, E818Q, and D816N/E818Q) were constructed using the Gene Tailor Site-Directed Mutagenesis system (Invitrogen, Carlsbad, CA, United States), according to the manufacturer’s instructions. Nav1.2–Nav1.7 and mutant plasmids together with eGFP were transiently transfected into HEK293T cells while Nav1.8 together with eGFP was transiently transfected into ND7/23 cells by Lipofectamine 2000 (Invitrogen, Carlsbad, CA, United States). Additionally, plasmids β1- and β2-eGFP encoding the human β1 and β2 subunits, respectively, were co-transfected with those encoding WT Nav1.7 and Nav1.7 mutations in HEK293T cells. Human Nav1.9 was transfected into ND7/23 cells according to a previous report ([Zhou et al., 2017]). […] Cells with green fluorescent protein fluorescence were selected for whole-cell patch-clamp recordings 24 h after transfection.
(§2) Whole-cell patch-clamp recordings were performed at room temperature (20–25°C) using an EPC 10 USB Patch Clamp Amplifier (HEKA, Elektronik, Lambrecht, Germany). […] Data was analyzed by software Igo Pro 6.10A (WaveMetrics, Lake Oswego, OR, United States), SigmaPlot 10.0 (Sigma-Aldrich, St. Louis, MO, United States), OriginPro 8 (OriginLab Corp., Northampton, MA, United States), and GraphPad Prism 5 (GraphPad Software, San Diego, CA, United States). […]
Concentration-response curves were fitted using the following Hill logistic equation: y = fmax − (fmax − fmin)/(1 + (x/IC50)^n), where fmax and fmin, respectively, represent the channel’s maximum and minimum responses to toxins, fmin was set to 0, x represents toxin concentration and n is an empirical Hill coefficient. […] Peak inward currents from steady-state inactivation were normalized by the maximum current amplitude and fit with a Boltzmann equation I = Imin + 1/(1 + exp[Vm − V1/2/k]) where I is the current amplitude measured during the test depolarization, V1/2 is the midpoint of inaction, and k is the slope factor. […]

[2] = target: T2, Nav1.7/D816N (Homo sapiens, UniProt Q15858, D827N); experiment: Whole-cell patch-clamp, Nav1.7/D816N in HEK293T cells
T2 construct: expressed in transfected cells; host or cells: HEK293T
Excerpt: as §1, with “cells.” for “cells. Human Nav1.9 was transfected into ND7/23 cells according to a previous report ([Zhou et al., 2017]).”
as §2

[3] = target: T3, Nav1.3 (Homo sapiens, UniProt Q9NY46); experiment: Whole-cell patch-clamp, Nav1.3 in HEK293T cells; settings: mean ± SEM
T3 construct: expressed in transfected cells; host or cells: HEK293T
Excerpt: as §1, with “cells.” for “cells. Human Nav1.9 was transfected into ND7/23 cells according to a previous report ([Zhou et al., 2017]).”
as §2

[4] = target: T4, Nav1.7 (Homo sapiens, UniProt Q15858); experiment: Recovery from fast inactivation (repriming) of Nav1.7; settings: 0.2 μM; at –100 mV; control 6.42 ± 0.85 ms; P < 0.05 paired t-test; mean ± SEM, n = 6–11 cells
T4 construct: expressed in transfected cells; host or cells: HEK293T
Excerpt: as §1, with “States).” for “States). Additionally, plasmids β1- and β2-eGFP encoding the human β1 and β2 subunits, respectively, were co-transfected with those encoding WT Nav1.7 and Nav1.7 mutations in HEK293T cells. Human Nav1.9 was transfected into ND7/23 cells according to a previous report ([Zhou et al., 2017]).”
as §2
Fast inactivation time constants were calculated by fitting current decay traces with a single exponential function using the I–V protocol described above. […]

T1 sequence (O60939 30-215): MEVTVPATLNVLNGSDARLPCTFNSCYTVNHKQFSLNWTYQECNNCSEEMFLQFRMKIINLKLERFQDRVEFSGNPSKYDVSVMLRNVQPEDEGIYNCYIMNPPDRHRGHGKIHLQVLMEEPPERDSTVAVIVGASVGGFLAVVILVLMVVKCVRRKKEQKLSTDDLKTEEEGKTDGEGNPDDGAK
T1 sequence (Q15858 other isoform, or with tags, fused parts or gaps): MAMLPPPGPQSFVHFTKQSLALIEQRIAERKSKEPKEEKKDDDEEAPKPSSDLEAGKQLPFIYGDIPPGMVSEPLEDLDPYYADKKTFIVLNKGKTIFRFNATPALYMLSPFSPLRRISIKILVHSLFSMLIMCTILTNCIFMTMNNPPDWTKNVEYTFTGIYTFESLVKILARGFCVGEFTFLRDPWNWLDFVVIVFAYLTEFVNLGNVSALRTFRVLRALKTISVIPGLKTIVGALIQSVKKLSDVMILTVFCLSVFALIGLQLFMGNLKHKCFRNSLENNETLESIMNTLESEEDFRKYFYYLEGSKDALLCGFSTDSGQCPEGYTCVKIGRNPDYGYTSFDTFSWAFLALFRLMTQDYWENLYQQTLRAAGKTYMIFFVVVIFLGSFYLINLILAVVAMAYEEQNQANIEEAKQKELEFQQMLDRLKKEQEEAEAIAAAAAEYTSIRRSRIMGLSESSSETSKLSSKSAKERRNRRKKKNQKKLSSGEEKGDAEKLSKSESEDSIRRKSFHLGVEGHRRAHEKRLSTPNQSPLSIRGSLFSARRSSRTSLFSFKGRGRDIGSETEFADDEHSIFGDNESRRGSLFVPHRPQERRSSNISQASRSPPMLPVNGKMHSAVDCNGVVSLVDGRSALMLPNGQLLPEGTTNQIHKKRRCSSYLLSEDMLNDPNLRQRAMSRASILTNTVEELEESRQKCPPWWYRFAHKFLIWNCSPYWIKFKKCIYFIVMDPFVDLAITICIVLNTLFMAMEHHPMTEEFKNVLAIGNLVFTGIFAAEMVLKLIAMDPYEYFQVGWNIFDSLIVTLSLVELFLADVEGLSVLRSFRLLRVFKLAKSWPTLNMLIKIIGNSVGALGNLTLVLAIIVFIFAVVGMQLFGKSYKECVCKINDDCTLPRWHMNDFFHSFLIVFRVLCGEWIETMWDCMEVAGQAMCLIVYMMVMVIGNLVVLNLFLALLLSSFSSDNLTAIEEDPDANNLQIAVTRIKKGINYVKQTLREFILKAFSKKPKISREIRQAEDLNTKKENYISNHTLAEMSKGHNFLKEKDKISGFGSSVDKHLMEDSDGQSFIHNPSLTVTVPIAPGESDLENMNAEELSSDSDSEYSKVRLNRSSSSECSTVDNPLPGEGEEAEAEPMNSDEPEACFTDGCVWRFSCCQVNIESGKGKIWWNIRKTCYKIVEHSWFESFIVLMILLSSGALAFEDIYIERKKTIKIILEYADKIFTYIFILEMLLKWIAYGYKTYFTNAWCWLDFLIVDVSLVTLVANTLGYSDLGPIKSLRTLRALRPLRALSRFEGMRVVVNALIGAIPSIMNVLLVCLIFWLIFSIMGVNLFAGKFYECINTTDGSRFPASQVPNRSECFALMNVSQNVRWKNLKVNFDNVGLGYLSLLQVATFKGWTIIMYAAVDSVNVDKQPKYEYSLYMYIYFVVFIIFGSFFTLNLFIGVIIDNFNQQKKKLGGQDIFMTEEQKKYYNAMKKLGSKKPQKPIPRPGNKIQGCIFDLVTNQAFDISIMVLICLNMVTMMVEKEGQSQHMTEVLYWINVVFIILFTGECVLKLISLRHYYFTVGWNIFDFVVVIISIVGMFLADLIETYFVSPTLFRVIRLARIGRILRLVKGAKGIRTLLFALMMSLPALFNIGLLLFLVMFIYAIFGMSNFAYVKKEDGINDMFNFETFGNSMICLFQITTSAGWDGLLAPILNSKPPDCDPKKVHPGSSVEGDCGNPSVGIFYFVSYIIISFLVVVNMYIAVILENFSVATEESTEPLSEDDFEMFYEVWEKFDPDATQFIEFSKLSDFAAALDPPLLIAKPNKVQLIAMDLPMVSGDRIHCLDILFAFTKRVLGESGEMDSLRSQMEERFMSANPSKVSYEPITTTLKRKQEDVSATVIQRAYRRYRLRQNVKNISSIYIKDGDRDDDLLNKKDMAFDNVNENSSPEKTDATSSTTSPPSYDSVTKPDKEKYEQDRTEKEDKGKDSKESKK
T1 sequence (Q07699 19-218, further chain): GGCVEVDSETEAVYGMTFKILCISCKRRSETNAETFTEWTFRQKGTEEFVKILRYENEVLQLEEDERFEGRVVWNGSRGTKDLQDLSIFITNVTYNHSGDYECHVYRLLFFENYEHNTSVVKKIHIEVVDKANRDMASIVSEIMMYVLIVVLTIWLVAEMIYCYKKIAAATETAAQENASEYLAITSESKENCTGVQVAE
T3 sequence (Q9NY46 whole entry): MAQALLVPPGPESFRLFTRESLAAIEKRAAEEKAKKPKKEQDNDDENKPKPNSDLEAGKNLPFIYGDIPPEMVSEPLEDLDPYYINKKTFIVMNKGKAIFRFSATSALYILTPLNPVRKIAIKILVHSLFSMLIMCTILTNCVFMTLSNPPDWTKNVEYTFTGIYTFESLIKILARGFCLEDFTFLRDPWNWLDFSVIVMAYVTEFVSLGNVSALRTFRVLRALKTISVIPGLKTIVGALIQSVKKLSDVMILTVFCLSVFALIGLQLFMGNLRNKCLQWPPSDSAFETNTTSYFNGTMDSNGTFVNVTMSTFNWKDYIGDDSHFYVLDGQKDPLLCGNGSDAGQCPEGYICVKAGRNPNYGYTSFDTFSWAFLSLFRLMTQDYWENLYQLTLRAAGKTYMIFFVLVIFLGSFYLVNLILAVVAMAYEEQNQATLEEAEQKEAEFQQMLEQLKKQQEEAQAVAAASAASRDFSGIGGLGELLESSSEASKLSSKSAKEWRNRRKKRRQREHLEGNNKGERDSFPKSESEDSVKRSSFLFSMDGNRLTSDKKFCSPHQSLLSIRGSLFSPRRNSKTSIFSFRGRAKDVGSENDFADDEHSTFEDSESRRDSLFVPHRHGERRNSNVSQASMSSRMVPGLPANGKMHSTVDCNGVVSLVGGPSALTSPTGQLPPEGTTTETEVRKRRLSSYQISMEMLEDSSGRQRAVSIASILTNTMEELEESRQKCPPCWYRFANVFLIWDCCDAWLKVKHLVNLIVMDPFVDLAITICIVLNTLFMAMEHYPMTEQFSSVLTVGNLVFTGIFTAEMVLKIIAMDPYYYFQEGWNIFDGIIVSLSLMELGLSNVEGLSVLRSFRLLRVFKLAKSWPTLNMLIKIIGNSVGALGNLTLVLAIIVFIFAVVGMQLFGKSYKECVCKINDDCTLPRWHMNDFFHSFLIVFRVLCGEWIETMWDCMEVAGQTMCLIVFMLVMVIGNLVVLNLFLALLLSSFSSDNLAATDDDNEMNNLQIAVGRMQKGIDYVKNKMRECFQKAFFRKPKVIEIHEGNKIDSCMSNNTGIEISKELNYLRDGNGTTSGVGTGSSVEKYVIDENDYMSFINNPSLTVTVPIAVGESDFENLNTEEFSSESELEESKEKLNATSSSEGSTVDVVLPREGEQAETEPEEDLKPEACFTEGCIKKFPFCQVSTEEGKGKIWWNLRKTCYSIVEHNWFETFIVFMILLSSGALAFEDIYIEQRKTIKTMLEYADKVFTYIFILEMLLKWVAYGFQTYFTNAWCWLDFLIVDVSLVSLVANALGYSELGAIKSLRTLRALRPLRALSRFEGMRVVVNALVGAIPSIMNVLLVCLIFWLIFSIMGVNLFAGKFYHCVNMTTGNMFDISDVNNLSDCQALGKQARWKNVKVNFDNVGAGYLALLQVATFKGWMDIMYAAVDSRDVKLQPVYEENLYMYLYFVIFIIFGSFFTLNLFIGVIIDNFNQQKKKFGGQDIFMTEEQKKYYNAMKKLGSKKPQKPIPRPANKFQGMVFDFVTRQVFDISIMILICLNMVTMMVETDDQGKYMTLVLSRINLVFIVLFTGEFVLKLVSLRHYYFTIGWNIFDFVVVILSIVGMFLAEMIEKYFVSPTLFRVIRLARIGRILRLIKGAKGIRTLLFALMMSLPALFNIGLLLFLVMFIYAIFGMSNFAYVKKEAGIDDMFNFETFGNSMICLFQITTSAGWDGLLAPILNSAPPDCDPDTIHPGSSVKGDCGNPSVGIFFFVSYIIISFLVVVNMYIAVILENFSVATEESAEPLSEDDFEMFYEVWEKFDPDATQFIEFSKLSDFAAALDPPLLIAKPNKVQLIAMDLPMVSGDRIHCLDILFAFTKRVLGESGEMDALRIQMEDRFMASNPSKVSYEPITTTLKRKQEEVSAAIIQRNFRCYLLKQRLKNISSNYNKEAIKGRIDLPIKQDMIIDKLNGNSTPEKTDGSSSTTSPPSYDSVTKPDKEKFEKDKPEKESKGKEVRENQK
T2 sequence (O60939 30-215): as the sequence (O60939 30-215) above
T2 sequence (Q07699 19-218, further chain): as the sequence (Q07699 19-218, further chain) above
T2 sequence (Q15858 other isoform, or with tags, fused parts or gaps D816N): as the sequence (Q15858 other isoform, or with tags, fused parts or gaps) above, with D816N counted along it
T4 sequence (O60939 30-215): as the sequence (O60939 30-215) above
T4 sequence (Q15858 other isoform, or with tags, fused parts or gaps): as the sequence (Q15858 other isoform, or with tags, fused parts or gaps) above
T4 sequence (Q07699 19-218, further chain): as the sequence (Q07699 19-218, further chain) above

What does the source list for `CC(C)C[C@H](NC(=O)[C@H](CC(=O)O)NC(=O)[C@H](Cc1ccc(O)cc1)NC(=O)[C@H](CCCCN)NC(=O)[C@@H]1CSSC[C@@H]2NC(=O)[C@H](CCCCN)NC(=O)[C@H](CC(=O)O)NC(=O)[C@H](CC(N)=O)NC(=O)[C@H](CO)NC(=O)[C@@H]3CCCN3C(=O)[C@H](CC(N)=O)NC(=O)[C@@H]3CSSC[C@H](NC(=O)[C@H](C(C)C)NC(=O)[C@H](CC(C)C)NC(=O)[C@H](CO)NC(=O)[C@H](CO)NC(=O)[C@H](CO)NC(=O)[C@H](CCCCN)NC(=O)[C@H](CSSC[C@H](NC(=O)[C@H](C)N)C(=O)N[C@@H](CC(C)C)C(=O)NCC(=O)N[C@@H](Cc4ccccc4)C(=O)NCC(=O)N[C@@H](CCC(=O)O)C(=O)N[C@@H](CCCCN)C(=O)N3)NC2=O)C(=O)N[C@@H](CO)C(=O)N[C@@H](CCC(N)=O)C(=O)N[C@@H](CCCCN)C(=O)N[C@@H](Cc2c[nH]cn2)C(=O)N[C@@H](CCCCN)C(=O)N[C@@H](Cc2c[nH]c3ccccc23)C(=O)N1)C(=O)O` [Ca2a] (H-ACLGFGEKCNPSNDKCCKSSSLVCSQKHKWCKYDL-OH; disulfide 2-17, 9-24, 16-31 (inferred); N-terminus and C-terminus assumed)?
inhibition at 0.2 µM ([1]; HEK-293T, 0.2 μM, read-out: inhibition of Nav1.7 current): 64.5 ± 2.1%; inhibition at 1 µM ([1]; HEK-293T, 1 μM, 50 ms depolarization to −10 mV from −100 mV, room temperature, read-out: inhibition on Nav1.7 currents): 87.3 ± 4.4%; IC50 ([1]; whole-cell patch-clamp, 50 ms to −10 mV from −100 mV, n = 4–7 cells per data point): 98.1 ± 3.3 nM; inhibition of Nav1.7/D816N current amplitude ([2]; 1 μM): significantly inhibited; IC50 ([2]; mean ± SEM, n = 5 cells per data point): 172 ± 11.4 nM; decrease of Nav1.3 current amplitude ([3]; 1 μM, 50 ms to −10 mV from −100 mV): 67.7 ± 3.8%; IC50 ([3]; whole-cell patch-clamp, n = 4–7 cells per data point): 491.3 ± 3.9 nM; τ of recovery from fast inactivation at Nav1.7 [4]: 8.93 ± 1.62 ms
